These are literature values, as cited in US8440172B2, “Stable soluble salts of phenylbenzimidazole sulfonic acid at PHS at or below 7.0” (Symrise AG, priority 2007, dated 2013).

Each structure is given as a SMILES string.

The conditions of data set [1]: free acid, not neutralised.

`O=S(=O)(O)c1ccc2nc(-c3ccccc3)[nH]c2c1` [phenylbenzimidazole sulfonic acid, 2-phenylbenzimidazole-5-sulfonic acid]: the “pH of cosmetic formulation needed to prevent the free acid from recrystallising” value (Johncock, Cosmetic & Toiletries Magazine 1999) is listed as “above 6.8”. Also, the “pH at which crystal formation starts” value (cosmetic formulation, Johncock 1999) was 7.0. Also, the solubility in water in data set [1] was 0.25 % w/w.
